Measurements: publication PMC5428058, “Local delivery of novel MRTF/SRF inhibitors prevents scar tissue formation in a preclinical model of fibrosis” (Scientific Reports, 2017)

How the values were obtained:
[1] = test system: New Zealand white rabbits; experiment: rabbit glaucoma filtration surgery model of scar tissue formation, clinical end-points; assay type: in vivo
Source text: 24 female New Zealand white rabbits (2–2.4 kg, 12—14 weeks, Highgate, UK) underwent experimental glaucoma filtration surgery to the left eye under general anaesthesia, [28]. A superonasal fornix-based conjunctival flap was raised behind the limbus and a micro-vitreoretinal blade (20 gauge, 0.90 mm, Surgistar USA) was used to make a partial thickness scleral tunnel to the corneal stroma. A 22 gauge, 25 mm intravenous cannula was passed through the tunnel and the needle was removed once it was visible in the cornea. The cannula was advanced into the mid-pupillary area, trimmed at its scleral edge and fixed to the scleral surface using a 10–0 nylon suture (Alcon, USA). The conjunctival incision was closed using two interrupted 10–0 nylon sutures. In a randomised, prospective, single-masked observer study, the rabbits received either intraoperative 0.2 mg/ml mitomycin-C (MMC) [N = 6], or postoperative subconjunctival injections (100 μl) of 100 μM CCG-203971 [N = 6] or 100 μM CCG-222740 [N = 6] or vehicle control [N = 6] daily for the first nine days followed by twice weekly for three weeks, [33]. CCG-222740 and CCG-203971 were dissolved in 100% DMSO (Sigma, UK) at 10 mM and then diluted to 100 μM with sterile PBS. The same volume of DMSO was diluted with PBS for the vehicle control. For the MMC-treated group, a small corneal light shield sponge was soaked in 1 ml of 0.2 mg/ml MMC and applied over the conjunctiva for 3 minutes, and the area was then thoroughly washed with 50 ml of physiologic balanced salt solution (Alcon Laboratories, Inc., Fort Worth, TX). All the postoperative subconjunctival injections were given at the same site by a single-masked researcher.
(§1) The animals were evaluated twice weekly by a single-masked researcher. Bleb width and length were measured using calipers and intraocular pressures (IOP) were measured using a tonovet (Icare). The primary efficacy end-point was bleb survival as this is indicative of the long-term opening of the filtration pathway created during surgery. Bleb failure was defined as the appearance of a flat, scarred, and vascularised bleb associated with a deep anterior chamber. IOP survival, defined as when the intraocular pressure remains below the baseline IOP measurement, and bleb area were used as secondary end-points. Conjunctival vascularity was graded on a scale of 0 to 3 (0: avascular, 1: normal, 2: hyperaemic, 3: very hyperaemic).

[2] = test system: New Zealand white rabbits; experiment: local and systemic toxicity after glaucoma filtration surgery; assay type: in vivo; settings: rabbit
Experimental: as §1
For the Ki67 staining, the sections were dewaxed, rehydrated, and microwaved for 15 minutes in sodium citrate buffer (pH 6) for antigen retrieval. After incubating in 1.6% hydrogen peroxide followed by 10% normal horse serum, the sections were incubated in mouse anti-Ki67 (M7248, Dako) diluted 1 in 25 in 1% BSA/PBS for 1 hour at room temperature. The sections were then incubated in biotinylated horse anti-mouse IgG (Vector) and Avidin-Biotin complex (Vector), developed in DAB (Vector), and counterstained in haematoxylin.
All animals were carefully evaluated for any signs of ocular or systemic toxicity during the study. At day 30, 100 µl of aqueous, 1 ml of vitreous, and 1 ml of venous blood were sampled on the rabbit eyes receiving CCG-222740 or CCG-203971 or vehicle control. The venous blood samples were left to clot for 30 minutes at room temperature, spun at 4000 rpm for 15 minutes at 4 °C, and the serum was collected as the supernatant. Samples were extracted in acetonitrile and the levels of CCG-222740 and CCG-203971 were measured in the aqueous, vitreous, and serum using liquid chromatography/mass spectrometry (LC/MS) in the Metabolomics Core at Michigan State University (East Lansing, MI).

SMILES: CO[C@@]12[C@H](COC(N)=O)C3=C(C(=O)C(C)=C(N)C3=O)N1C[C@@H]1N[C@@H]12 [MMC, mitomycin-C, reference compound]
- bleb area compared to vehicle control [1]: significantly larger
- mean day of bleb failure ([1]; CCG compounds 100 μM subconjunctival, MMC 0.2 mg/ml intraoperative, vehicle 14 days): 28.8 days
- intraocular pressure (IOP) ([1]; versus vehicle control or baseline): significantly lower
- Ki67 positive cells in the conjunctival epithelium ([2]; day 30): markedly reduced the number of Ki67 positive cells
- conjunctival vascularity ([2]; in vivo): thin avascular blebs
- local toxicity, conjunctival epithelium ([2]; in vivo): caused disruption of the epithelial cell layer
